Data published in patent US12378252B2, “Pyrrolopyrazole derivatives, preparation method thereof and application thereof in medicine” (SHANGHAI MEDICILON INC., priority 2019, dated 2025).
Counter-ions that a name gives are not always drawn.

Target: T1, H+/K+ ATPase (Oryctolagus cuniculus, UniProt P27112)
T1 construct: The stomach tissue of the rabbit was separated; from tissue; host or cells: rabbit stomach (fundus) mucosa, membrane fraction obtained by differential and Ficoll centrifugation
Experiment: determination of compounds' inhibition of H+/K+ ATPase enzyme activity (malachite green, OD 620 nm)
Type: biochemical
Details: enzyme extracted from rabbit stomach tissue; pH 6.5; ATP 500 μM; 37° C.
Description: Test example: determination of compounds' inhibition of H^+/K+ATPase enzyme activity
The following experiment is used to determine the inhibitory effect of the compound of the present invention on the H^+/K+ATPase enzyme activity.
1. Experimental materials
Plate reader: SpectraMax M5 (MD)
Malachite Green (Sigma Aldrich, 213020-25G)
Ammonium molybdate (Sigma Aldrich, 277908-20G)
ATP (Sigma Aldrich, A1852-1VL).
Enzyme working solution: titrating the enzyme, diluting the enzyme with buffer 1, and during the reaction, taking 5 μl of the diluted solution into 50 μl reaction system.
ATP solution: 100 mM ATP was diluted to 5 mM with no K+buffer, and 5 μl of the diluted solution was added to the 50 μl reaction system, that is, the final concentration of ATP was 500 μM.
MLG color development liquid: 0.12% MLG, 7.5% ammonium molybdate, and […] Tween-20 was mixed as 100:25:2, and adding 15 μl of the mixture into each well during detection.
Buffer 1: 50 mM Tris-HCl pH 6.5, 5 mM magnesium chloride (magnesium chloride), 10 μM valinomycin (valinomycin).
Buffer 2: 50 mM Tris-HCl pH 6.5, 5 mM magnesium chloride (magnesium chloride), 10 μM valinomycin (valinomycin), 20 mM KCl.
Homogenization buffer: 10 mmol/L Tris-HCl, pH 6.8, 0.25M sucrose (sucrose), 1 mmol/LEDTA. 7.5% Ficoll layering solution: homogenization buffer+7.5% (W/W) 400 (Ficoll 400).
3.1. H^+/K^+ ATPase enzyme extraction
(1) The stomach tissue of the rabbit was separated, and the blood was washed with tap water, food residue.
(2) The fundus portion was thoroughly washed with pre-cooled NaCl solution to remove surface mucus.
(3) The stripped mucosa was filled into a sample bag or a 50 ml centrifuge tube, and quickly freezing in a liquid nitrogen tank.
(4) The tissue was removed, minced with surgical scissors, and a pre-cooled homogenization buffer (4 ml/g tissue) was added and homogenized in a tissue homogenizer for 2 to 10 minutes.
(5) After homogenization, if there were larger tissue particles, they could be removed by centrifugation (600 g, 10 min), and then the supernatant was transferred to a clean centrifuge tube. After centrifugation at 20000 g for 30 minutes, then the supernatant was transferred to a clean centrifuge tube at 100000 g for 90 minutes and the precipitate was collected.
(6) Resuspending the precipitate with homogenization buffer, blowing uniformly, adding 7.5% Ficoll layering solution at equal ratio, centrifuging at 100000 g for 90 minutes, and collecting the precipitate.
(7) Resuspending the precipitate with homogenization buffer, blowing uniformly, and the protein concentration was measured by Bradford. Freezing in tubes at −80° C. for later use.
3.2. H^+/K^+ ATPase activity experiment
(1) Adding 35 μl of reaction buffer to each experimental well, and then added 35 μl of buffer 1.
(2) Adding 5 μl buffer 1 containing 10% DMSO to the whole enzyme and buffer well.
(3) Adding 5 μl of 10× compound working solution to the compound well and mixing well.
(4) Adding 5 of buffer 1 to the buffer well.
(5) Adding 5 μl of 10× enzyme working solution to the remaining wells, mixing and incubating at 37° C. for 30 minutes.
(6) Adding 5 μl of 10XATP working solution to all experimental wells, and incubating at 37° C. for 20 min.
(7) Adding 15 μl MLG chromogenic solution to all experimental wells, and uniformly mixing and incubating at room temperature for 5-30 min.
(8) The reading number of 620 nm was detected by an M5 instrument.
The inhibition rate is calculated with the following formula: Inhibition rate (IC50)=[OD (sample well)−OD (full enzyme well containing potassium chloride)]/[(OD (full enzyme well containing potassium chloride)−(OD (full enzyme well without potassium chloride Enzyme hole)]×100%

T1 sequence (P27112 whole entry): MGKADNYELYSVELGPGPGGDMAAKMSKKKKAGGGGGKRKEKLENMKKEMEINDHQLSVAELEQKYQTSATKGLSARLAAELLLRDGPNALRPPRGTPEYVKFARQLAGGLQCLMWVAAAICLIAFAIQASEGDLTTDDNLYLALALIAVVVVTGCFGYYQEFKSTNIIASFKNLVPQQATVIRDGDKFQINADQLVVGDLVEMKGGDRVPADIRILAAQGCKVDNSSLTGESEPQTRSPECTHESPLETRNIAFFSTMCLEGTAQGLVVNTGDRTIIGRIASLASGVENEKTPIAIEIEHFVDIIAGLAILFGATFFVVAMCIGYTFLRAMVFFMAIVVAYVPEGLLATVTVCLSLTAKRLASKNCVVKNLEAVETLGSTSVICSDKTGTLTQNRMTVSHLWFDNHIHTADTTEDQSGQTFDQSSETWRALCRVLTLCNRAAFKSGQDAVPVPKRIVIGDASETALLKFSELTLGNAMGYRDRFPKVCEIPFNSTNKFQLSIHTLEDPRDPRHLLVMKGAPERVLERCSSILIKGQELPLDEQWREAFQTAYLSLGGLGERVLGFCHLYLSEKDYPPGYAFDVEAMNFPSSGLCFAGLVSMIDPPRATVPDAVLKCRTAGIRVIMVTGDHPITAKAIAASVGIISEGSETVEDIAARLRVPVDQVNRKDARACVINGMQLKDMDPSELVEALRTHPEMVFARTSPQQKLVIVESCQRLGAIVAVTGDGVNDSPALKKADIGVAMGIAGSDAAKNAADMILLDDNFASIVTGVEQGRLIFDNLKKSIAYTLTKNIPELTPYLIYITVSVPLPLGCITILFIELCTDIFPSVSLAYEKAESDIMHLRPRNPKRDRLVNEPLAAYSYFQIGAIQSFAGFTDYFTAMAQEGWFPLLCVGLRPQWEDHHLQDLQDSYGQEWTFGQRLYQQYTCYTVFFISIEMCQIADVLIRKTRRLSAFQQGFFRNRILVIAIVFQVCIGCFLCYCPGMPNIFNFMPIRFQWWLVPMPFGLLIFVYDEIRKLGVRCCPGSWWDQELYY
T1 sequence (P18597 whole entry partner): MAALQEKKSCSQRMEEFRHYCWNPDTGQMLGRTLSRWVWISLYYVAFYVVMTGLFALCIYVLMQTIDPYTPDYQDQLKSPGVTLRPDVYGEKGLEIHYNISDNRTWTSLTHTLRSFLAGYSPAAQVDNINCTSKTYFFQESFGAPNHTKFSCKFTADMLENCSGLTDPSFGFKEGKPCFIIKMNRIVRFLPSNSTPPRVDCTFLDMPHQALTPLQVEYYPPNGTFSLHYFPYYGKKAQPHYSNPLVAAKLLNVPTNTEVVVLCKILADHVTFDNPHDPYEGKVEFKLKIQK

Row | SMILES | IC50 [nM]
1 | CCOC(=O)c1cccc(Cn2nc3c(c2-c2ccccc2F)CN(C)C3)c1 [Example 3, 3-((3-(2-fluorophenyl)-5-methyl-5,6-dihydropyrrolo[3,4-c]pyrazole-2(4H)-yl)methyl) ethyl benzoate] | 90.4
2 | CN1Cc2nn(Cc3cccc(C(=O)NC4CC4)c3)c(-c3ccccc3F)c2C1 [Example 4, N-cyclopropyl-3-((3-(2-fluorophenyl)-5-methyl-5,6-dihydropyrrolo[3,4-c]pyrazole-2(4H)-Yl)methyl)benzamide] | 539
3 | COC(=O)c1cc(Cn2nc3c(c2-c2ccccc2C)CN(C)C3)ccc1F [Example 7, 2-Fluoro-5-((5-methyl-3-(o-tolyl)-5,6-dihydropyrrole [3,4-c]pyrazole-2 (4H)-yl)methane Yl) methyl benzoate] | 39
4 | Cc1ccccc1-c1c2c(nn1Cc1cccc(C(=O)OC(C)(C)C)c1)CN(C)C2 [Example 8, 3-((5-Methyl-3-(o-tolyl)-5,6-dihydropyrrolo[3,4-c]pyrazole-2(4H)-yl)methyl) benzene Tert-butyl formate] | 589
5 | COC(=O)c1cccc(Cn2nc3c(c2-c2ccc(F)cc2F)CN(C)C3)c1 [Example 9, 3-((3-(2,4-Difluorophenyl)-5-methyl-5,6-dihydropyrrolo [3,4-c]pyrazole-2(4H)-yl) Methyl) methyl benzoate] | 61.4

The next lines start with the values.

Row | IC50 [nM] | SMILES
6 | 77.6 | COC(=O)c1cccc(Cn2nc3c(c2-c2ccccc2F)CN(C)C3)c1 [Example 1, 3-((3-(2-fluorophenyl)-5-methyl-5,6-dihydropyrrolo[3,4-c]pyrazole-2(4H)-yl)methyl)benzoic acid ester]
7 | 96.8 | CCCCOC(=O)c1cccc(Cn2nc3c(c2-c2ccccc2F)CN(C)C3)c1 [Example 2, 3-((3-(2-fluorophenyl)-5-methyl-5,6-dihydropyrrolo [3,4-c]pyrazole-2(4H)-yl)methyl)butyl benzoate]
8 | 225 | CN1Cc2nn(Cc3cccc(C(=O)OC(C)(C)C(N)=O)c3)c(-c3ccccc3F)c2C1 [Example 5, 1-amino-2-methyl-1-oxopropan-2-yl-3-((3-(2-fluorophenyl)-5-methyl-5,6-dihydropyrrolo [3,4-c]pyrazole-2(4H)-yl)methyl)benzoate]
9 | 36.6 | COC(=O)c1cccc(Cn2nc3c(c2-c2ccccc2C)CN(C)C3)c1 [Example 6, 3-((5-methyl-3-(o-tolyl)-5,6-dihydropyrrolo[3,4-c]pyrazole-2(4H)-yl)methyl) Methyl benzoate]
